The target in this assay is Acetylcholinesterase (Torpedo californica, UniProt P04058). Put plainly: Inhibition of Torpedo californica AchE activity by Ellman's assay. The arrangement: species or system Tetronarce californica. For orientation: In Ellman's method for cholinesterases, released thiocholine reacts with DTNB.
Acetylcholinesterase, sequence (P04058 whole entry): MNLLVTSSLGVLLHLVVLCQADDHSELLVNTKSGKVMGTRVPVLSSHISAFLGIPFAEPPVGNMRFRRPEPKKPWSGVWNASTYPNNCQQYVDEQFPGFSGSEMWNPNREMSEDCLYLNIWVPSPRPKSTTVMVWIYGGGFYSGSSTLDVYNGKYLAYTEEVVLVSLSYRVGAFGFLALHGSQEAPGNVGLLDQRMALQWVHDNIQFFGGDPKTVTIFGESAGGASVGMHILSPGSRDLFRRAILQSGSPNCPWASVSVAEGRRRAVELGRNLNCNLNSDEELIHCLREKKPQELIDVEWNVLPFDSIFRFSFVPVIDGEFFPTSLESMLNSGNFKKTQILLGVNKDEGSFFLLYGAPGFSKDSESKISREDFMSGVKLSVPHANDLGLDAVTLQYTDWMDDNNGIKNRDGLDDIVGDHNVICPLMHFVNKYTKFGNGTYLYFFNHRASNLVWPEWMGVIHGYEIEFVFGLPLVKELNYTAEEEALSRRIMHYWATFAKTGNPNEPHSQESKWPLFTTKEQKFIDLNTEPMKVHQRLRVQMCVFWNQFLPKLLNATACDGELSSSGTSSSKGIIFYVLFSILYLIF

The IC50 is the midpoint of a concentration-inhibition curve. High values mean weaker potency in that assay, low ones greater potency in that assay. `Cn1cc2c(cc1=O)-c1nc3cc(Br)ccc3c3ccnc(c13)C2=O` came in with an IC50 greater than 300000 nM.
As to `Cn1ccc2c3nc4cc(Br)ccc4c4c3c(c(=O)c-2c1)[N+](C)(C)CC4=O` [PETROSAMINE], 91 nM corresponded to half-maximal inhibition (IC50).
